# Columns and labels:
# [1] = test system: C57B6 mice; assay: Glucokinase activator in vivo screen: blood glucose lowering in mice after oral dosing; conditions: Mus musculus, vs control, read-out: % gluc lowering @ 4 H; for change in vivo at 25 mg/kg: 4 h post 25 mg/kg oral dose; for change in vivo at 30 mg/kg: 4 h post 30 mg/kg oral dose
# Procedure: Glucokinase Activator in vivo Screen Protocol in Lean and Diet Induced Obese Mice: Lean or Diet-Induced Obese (DIO) C57BL/6J mice were orally dosed via gavage with Glucokinase (GK) activator following a two hour fasting period. Blood glucose determinations were made at various (e.g. 0, 1, 2, 4 and 8 h post-oral gavage) times during the study.
# C57Bl/6J mice were obtained from Jackson Laboratory (Bar Harbor, Me.) and were maintained in a light-dark cycle with lights on from 0600-1800 hr. For studies in lean mice, the mice were received at age ten weeks and given ad libitum access to control diet (LabDiet 5001 chow, PMI Nutrition, Brentwood, Mo.), and were at least age 11 weeks at the time of study. For studies in the DIO model, the mice were received at age five weeks and given ad libitum access to Bio-Serv F3282 High Fat Diet (Frenchtown, N.J.), and were at least age 16 weeks at the time of study. The experiments were conducted during the light phase of the light-dark cycle. Mice (n=6) are weighed and fasted for a two hour period prior to oral treatment. GK activators are formulated in Gelucire vehicle (Ethanol:Gelucire44/14:PEG400q.s. 4:66:30 v/w/v. For studies in lean mice, the mice were dosed orally with 5.0 μL per gram of body weight (i.e. 5 ml/kg×10.0 mg/ml formulation to equal a 50 mg/kg dose). For studies in DIO mice, the mice were dosed orally with 5.0 μL per gram of body weight (i.e. 5.0 ml/kg×5 mg/ml formulation to equal a 25 mg/kg dose). Immediately prior to dosing, a pre-dose (time zero) blood glucose reading was acquired by snipping off a small portion of the animal's tail and collecting 15 μL blood into a heparinized capillary tube for analysis. Following GK activator administration, additional blood glucose readings were taken at various time points post dose from the same tail wound. Results were interpreted by comparing the mean blood glucose values of vehicle treated mice with GK activator treated mice over the study period.
# The Table below provides data for % glucose lowering of a representative number of compounds of the present invention vs control at 4 h post 25 or 30 mg/kg dose in C57B6 mice: […]
# [2] = biological target: T1, Recombinant human liver GK1 (GST-GK) (Homo sapiens, UniProt P35557); assay: In vitro glucokinase activity (G6PDH-coupled NADH assay); type: biochemical; conditions: 30° C., 5 mM D-glucose, 10% DMSO
# T1 construct: made in house; host or cells: E. coli
# T1 sequence (P35557 1-466 isoform P35557-2): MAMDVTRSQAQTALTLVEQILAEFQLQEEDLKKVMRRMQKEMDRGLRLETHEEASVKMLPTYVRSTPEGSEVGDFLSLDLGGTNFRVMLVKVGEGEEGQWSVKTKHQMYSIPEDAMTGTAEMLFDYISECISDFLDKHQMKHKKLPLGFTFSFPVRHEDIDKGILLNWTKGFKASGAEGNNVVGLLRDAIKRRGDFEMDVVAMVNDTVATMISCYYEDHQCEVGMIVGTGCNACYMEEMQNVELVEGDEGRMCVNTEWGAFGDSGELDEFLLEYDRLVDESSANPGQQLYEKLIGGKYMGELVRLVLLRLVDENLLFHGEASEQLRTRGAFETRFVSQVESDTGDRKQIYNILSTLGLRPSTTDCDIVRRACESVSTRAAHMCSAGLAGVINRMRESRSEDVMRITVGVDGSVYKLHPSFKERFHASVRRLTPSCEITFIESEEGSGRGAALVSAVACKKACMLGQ
# Summary of the method: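 GST-tagged human liver GK1 from E. coli, assayed at 30° C in 25 mM Hepes pH 7.1 with 5 mM D-glucose, 1 mM ATP, 1.8 mM NAD and G6PDH coupling, 10% DMSO final; reaction started with enzyme after 10 min preincubation. NADH formation followed at OD340; SC1.5 is activator concentration giving 50% increase over DMSO control rate.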
compound,measurement,setting,value
"CC(C)(O)Cn1ccc(NC(=O)[C@H](CC2CCCCC2)N2CC(Oc3ccccc3C(F)(F)F)=CC2=O)n1 [Example 32, (S)-3-Cyclohexyl-N-[1-(2-hydroxy-2-methyl-propyl)-1H-pyrazol-3-yl]-2-[2-oxo-4-(2-trifluoromethyl-phenoxy)-2,5-dihydro-pyrrol-1-yl]-propionamide]",change in vivo at 25 mg/kg,[1],-37.5%
same,SC1.5 (concentration of activator that produced a 50% increase in the activity of GK),[2],0.025 µM
"CC(C)(O)Cn1ccc(NC(=O)[C@H](CC2CCCC2)N2CC(OC3CCOCC3)=CC2=O)n1 [Example 18, (S)-3-Cyclopentyl-N-[1-(2-hydroxy-2-methyl-propyl)-1H-pyrazol-3-yl]-2-[2-oxo-4-(tetrahydro-pyran-4-yloxy)-2,5-dihydro-pyrrol-1-yl]-propionamide]",change in vivo at 25 mg/kg,[1],-10%
same,SC1.5 (concentration of activator that produced a 50% increase in the activity of GK),[2],3.982 µM
"COc1ccccc1OC1=CC(=O)N([C@@H](CC2CCCO2)C(=O)Nc2ccn(CC(C)(C)O)n2)C1 (stereo partly drawn) [Example 31, (S)-N-[1-(2-hydroxy-2-methyl-propyl)-1H-pyrazol-3-yl]-2-[4-(2-methoxy-phenoxy)-2-oxo-2,5-dihydro-pyrrol-1-yl]-3-(tetrahydro-furan-2-yl)-propionamide]",change in vivo at 25 mg/kg,[1],-31.6%
same,SC1.5 (concentration of activator that produced a 50% increase in the activity of GK),[2],0.348 µM
"COc1cccc(OC2=CC(=O)N([C@@H](CC(C)C)C(=O)Nc3ccn(CC(C)(C)O)n3)C2)c1Cl [Example 48, (S)-2-[4-(2-Chloro-3-methoxy-phenoxy)-2-oxo-2,5-dihydro-pyrrol-1-yl]-4-methyl-pentanoic acid [1-(2-hydroxy-2-methyl-propyl)-1H-pyrazol-3-yl]-amide]",change in vivo at 30 mg/kg,[1],-57.4%
same,SC1.5 (concentration of activator that produced a 50% increase in the activity of GK),[2],0.078 µM
"COc1ccccc1OC1=CC(=O)N([C@@H](CC2CCCC2)C(=O)Nc2ccn(CC(C)(C)O)n2)C1 [Example 27, (S)-3-Cyclopentyl-N-[1-(2-hydroxy-2-methyl-propyl)-1H-pyrazol-3-yl]-2-[4-(2-methoxy-phenoxy)-2-oxo-2,5-dihydro-pyrrol-1-yl]-propionamide]",change in vivo at 30 mg/kg,[1],-52.2%
same,SC1.5 (concentration of activator that produced a 50% increase in the activity of GK),[2],0.029 µM
"CC(C)(O)Cn1ccc(NC(=O)[C@H](CC2CCCC2)N2CC(OC3CCC3)=CC2=O)n1 [Example 19, (S)-3-Cyclopentyl-N-[1-(2-hydroxy-2-methyl-propyl)-1H-pyrazol-3-yl]-2-(4-cyclobutoxy-2-oxo-2,5-dihydro-pyrrol-1-yl)-propionamide]",change in vivo at 25 mg/kg,[1],-29.5%
same,SC1.5 (concentration of activator that produced a 50% increase in the activity of GK),[2],1.991 µM
"O=C(Nc1ccn(C[C@@H](O)CO)n1)[C@H](CC1CCCC1)N1CC(Oc2c(F)cccc2F)=CC1=O [Example 88, (S)-3-Cyclopentyl-2-[4-(2,6-difluoro-phenoxy)-2-oxo-2,5-dihydro-pyrrol-1-yl]-N-[1-((R)-2,3-dihydroxy-propyl)-1H-pyrazol-3-yl]-propionamide]",change in vivo at 30 mg/kg,[1],-49.3%
same,SC1.5 (concentration of activator that produced a 50% increase in the activity of GK),[2],0.03 µM
"CC(C)(O)Cn1ccc(NC(=O)[C@H](CC2CCCC2)N2CC(OC3CCCCC3)=CC2=O)n1 [Example 17, (S)-3-Cyclopentyl-N-[1-(2-hydroxy-2-methyl-propyl)-1H-pyrazol-3-yl]-2-(4-cyclohexyloxy-2-oxo-2,5-dihydro-pyrrol-1-yl)-propionamide]",change in vivo at 25 mg/kg,[1],-35.8%
same,SC1.5 (concentration of activator that produced a 50% increase in the activity of GK),[2],0.366 µM
"CC(C)(O)Cn1ccc(NC(=O)[C@H](CC2CCCC2)N2CC(Oc3c(F)cccc3F)=CC2=O)n1 [Example 86, (S)-3-Cyclopentyl-2-[4-(2,6-difluoro-phenoxy)-2-oxo-2,5-dihydro-pyrrol-1-yl]-N-[1-(2-hydroxy-2-methyl-propyl)-1H-pyrazol-3-yl]-propionamide]",change in vivo at 30 mg/kg,[1],-57.4%
same,SC1.5 (concentration of activator that produced a 50% increase in the activity of GK),[2],0.021 µM
"COc1cccc(OC2=CC(=O)N([C@@H](CC3CCOCC3)C(=O)Nc3ccn(CC(C)(C)O)n3)C2)c1Cl [Example 51, (S)-2-[4-(2-Chloro-3-methoxy-phenoxy)-2-oxo-2,5-dihydro-pyrrol-1-yl]-N-[1-(2-hydroxy-2-methyl-propyl)-1H-pyrazol-3-yl]-3-(tetrahydro-pyran-4-yl)-propionamide]",change in vivo at 30 mg/kg,[1],-53.9%
same,SC1.5 (concentration of activator that produced a 50% increase in the activity of GK),[2],0.03 µM
"CC(C)C[C@@H](C(=O)Nc1ccn(C[C@@H](O)CO)n1)N1CC(Oc2c(F)cccc2F)=CC1=O [Example 47, (S)-2-[4-(2,6-difluoro-phenoxy)-2-oxo-2,5-dihydro-pyrrol-1-yl]-4-methyl-pentanoic acid [1-((R)-2,3-dihydroxy-propyl)-1H-pyrazol-3-yl]-amide]",change in vivo at 30 mg/kg,[1],-33.2%
same,SC1.5 (concentration of activator that produced a 50% increase in the activity of GK),[2],0.257 µM
"CC(C)C[C@@H](C(=O)Nc1ccn(CC(C)(C)O)n1)N1CC(Oc2ccccc2Cl)=CC1=O [Example 64, (S)-2-[4-(2-Chloro-phenoxy)-2-oxo-2,5-dihydro-pyrrol-1-yl]-4-methyl-pentanoic acid [1-(2-hydroxy-2-methyl-propyl)-1H-pyrazol-3-yl]-amide]",change in vivo at 30 mg/kg,[1],-58%
same,SC1.5 (concentration of activator that produced a 50% increase in the activity of GK),[2],0.125 µM
"COc1ccccc1OC1=CC(=O)N([C@@H](CC2CCCC2)C(=O)Nc2nccs2)C1 [Example 26, (S)-3-Cyclopentyl-2-[4-(2-methoxy-phenoxy)-2-oxo-2,5-dihydro-pyrrol-1-yl]-N-thiazol-2-yl-propionamide]",change in vivo at 25 mg/kg,[1],-36.9%
same,SC1.5 (concentration of activator that produced a 50% increase in the activity of GK),[2],0.031 µM
"CC(C)(O)Cn1ccc(NC(=O)[C@H](CC2CCOCC2)N2CC(Oc3c(F)cccc3F)=CC2=O)n1 [Example 43, (S)-2-[4-(2,6-Difluoro-phenoxy)-2-oxo-2,5-dihydro-pyrrol-1-yl]-N-[1-(2-hydroxy-2-methylpropyl)-1H-pyrazol-3-yl]-3-(tetrahydro-pyran-4-yl)-propionamide]",change in vivo at 30 mg/kg,[1],-38.1%
same,SC1.5 (concentration of activator that produced a 50% increase in the activity of GK),[2],0.058 µM
"CC(C)(O)Cn1ccc(NC(=O)[C@H](CC2CCCC2)N2CC(OC3CCCC3)=CC2=O)n1 [Example 16, (S)-3-Cyclopentyl-N-[1-(2-hydroxy-2-methyl-propyl)-1H-pyrazol-3-yl]-2-(4-cyclopentyloxy-2-oxo-2,5-dihydro-pyrrol-1-yl)-propionamide]",change in vivo at 25 mg/kg,[1],-36%
same,SC1.5 (concentration of activator that produced a 50% increase in the activity of GK),[2],0.649 µM
"CC(C)C[C@@H](C(=O)Nc1ccn(C[C@@H](O)CO)n1)N1CC(Oc2ccccc2Cl)=CC1=O [Example 66, (S)-2-[4-(2-Chloro-phenoxy)-2-oxo-2,5-dihydro-pyrrol-1-yl]-4-methyl-pentanoic acid [1-((R)-2,3-dihydroxy-propyl)-1H-pyrazol-3-yl]-amide]",change in vivo at 30 mg/kg,[1],-55.4%
same,SC1.5 (concentration of activator that produced a 50% increase in the activity of GK),[2],0.118 µM
COc1cccc(OC2=CC(=O)N([C@@H](CC(C)C)C(=O)Nc3ccn(C[C@@H](O)CO)n3)C2)c1Cl [Example 49],change in vivo at 30 mg/kg,[1],-38.3%
same,SC1.5 (concentration of activator that produced a 50% increase in the activity of GK),[2],0.079 µM
"COc1ccccc1OC1=CC(=O)N([C@@H](CC2CCCCC2)C(=O)Nc2ccn(CC(C)(C)O)n2)C1 [Example 28, (S)-3-Cyclohexyl-N-[1-(2-hydroxy-2-methyl-propyl)-1H-pyrazol-3-yl]-2-[4-(2-methoxy-phenoxy)-2-oxo-2,5-dihydro-pyrrol-1-yl]-propionamide]",change in vivo at 25 mg/kg,[1],-45.4%
same,SC1.5 (concentration of activator that produced a 50% increase in the activity of GK),[2],0.013 µM
